# Laboratory results published in patent US11051515B2, “3-acyl-benzamides and their use as herbicides” (Bayer Aktiengesellschaft, priority 2017, dated 2021).
# Columns and labels:
# SETVI [1] = assay: Post-emergence action against SETVI; format: in vivo, Setaria viridis; conditions: for pest or weed control at 80 g/ha: Setaria viridis, 504 h, post-emergence, dosage 80 g/ha, visual assessment about 3 weeks after treatment vs untreated controls, read-out: Post-emergence action against SETVI (herbicidal action in percent)
# Method in brief: (§1)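 Weeds grown in sandy loam in greenhouse, treated at one-leaf stage (2–3 weeks after sowing) with WP or EC formulations sprayed as aqueous suspension/emulsion at 600 to […] water with 0.2% wetting agent. Visual rating after about 3 weeks versus untreated controls, as % herbicidal action (100% = plants dead, 0% = like control).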
# PHBPU = assay: Post-emergence action against PHBPU; format: in vivo, Pharbitis purpurea; conditions: for pest or weed control at 80 g/ha: Ipomoea purpurea, 504 h, post-emergence, dosage 80 g/ha
# Method in brief: as §1
# MATIN = assay: Post-emergence action against MATIN; format: in vivo, Matricaria inodora; conditions: for pest or weed control at 80 g/ha: Tripleurospermum inodorum, 504 h, post-emergence, dosage 80 g/ha, visual assessment about 3 weeks after treatment vs untreated controls, read-out: Post-emergence action against MATIN (herbicidal action in percent)
# Method in brief: as §1
# ECHCG [2] = assay: Pre-emergence action against ECHCG; format: in vivo, Echinochloa crus-galli; conditions: for pest or weed control at 320 g/ha: Echinochloa crus-galli, 504 h, pre-emergence, dosage 320 g/ha, scored visually after 3 weeks vs untreated controls, read-out: Pre-emergence action against ECHCG (herbicidal activity); for Herbicidal efficacy against ECHCG: Table V3, pre-emergence, 80 g of a.i./ha
# Method in brief: (§2)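 Seeds sown in sandy loam in wood-fiber pots and covered with soil. Greenhouse growth; visual damage scored after 3 weeks versus untreated controls (100% = dead, 0% = like control).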
# POLCO [3] = assay: Post-emergence action against POLCO; format: in vivo, Polygonum convolvulus; conditions: Fallopia convolvulus, 504 h; post-emergence, dosage 80 g/ha
# Method in brief: as §1
# STEME = assay: Post-emergence action against STEME; format: in vivo, Stellaria media; conditions: for pest or weed control at 80 g/ha: Stellaria media, 504 h, post-emergence, dosage 80 g/ha
# Method in brief: as §1
# ECHCG [4] = assay: Post-emergence action against ECHCG; format: in vivo, Echinochloa crus-galli; conditions: for pest or weed control at 80 g/ha: Echinochloa crus-galli, 504 h, post-emergence, dosage 80 g/ha, visual assessment about 3 weeks after treatment vs untreated controls, read-out: Post-emergence action against ECHCG (herbicidal action in percent); for Herbicidal efficacy against ECHCG: Table V16, post-emergence
# Method in brief: as §1
# VIOTR = assay: Pre-emergence action against VIOTR; format: in vivo, Viola tricolor; conditions: for pest or weed control at 320 g/ha: Viola tricolor, 504 h, Dosage 320 g/ha, pre-emergence
# Method in brief: as §2
# AVEFA [5] = assay: Pre-emergence action against AVEFA; format: in vivo, Avena fatua; conditions: Avena fatua, 504 h, dosage 320 g/ha, scored visually after 3 weeks vs untreated controls, read-out: Pre-emergence action against AVEFA (herbicidal activity)
# Method in brief: as §2
# AVEFA [6] = assay: Post-emergence action against AVEFA; format: in vivo, Avena fatua; conditions: for pest or weed control at 80 g/ha: Avena fatua, 504 h, post-emergence, dosage 80 g/ha, visual assessment about 3 weeks after treatment vs untreated controls, read-out: Post-emergence action against AVEFA (herbicidal action in percent)
# Method in brief: as §1
# VERPE [7] = assay: Post-emergence action against VERPE; format: in vivo, Veronica persica; conditions: Veronica persica, 504 h, dosage 80 g/ha
# Method in brief: as §1
# ALOMY = assay: Post-emergence action against ALOMY; format: in vivo, Alopecurus myosuroides; conditions: for pest or weed control at 80 g/ha: Alopecurus myosuroides, 504 h, Dosage 80 g/ha, post-emergence
# Method in brief: as §1
# AMARE = assay: Post-emergence action against AMARE; format: in vivo, Amaranthus retroflexus; conditions: for pest or weed control at 80 g/ha: Amaranthus retroflexus, 504 h, post-emergence, dosage 80 g/ha, visual assessment about 3 weeks after treatment vs untreated controls, read-out: Post-emergence action against AMARE (herbicidal action in percent); for Herbicidal efficacy against AMARE: 5 g of a.i./ha
# Method in brief: as §1
# VERPE [8] = assay: Pre-emergence action against VERPE; format: in vivo, Veronica persica; conditions: for pest or weed control at 320 g/ha: Veronica persica, 504 h, Dosage 320 g/ha, pre-emergence
# Method in brief: as §2
# ABUTH = assay: Post-emergence action against ABUTH; format: in vivo, Abutilon theophrasti; conditions: Abutilon theophrasti, 504 h; post-emergence, dosage 80 g/ha, visual assessment about 3 weeks after treatment vs untreated controls; read-out: Post-emergence action against ABUTH (herbicidal action in percent)
# Method in brief: as §1
# SETVI [9] = assay: Pre-emergence action against SETVI; format: in vivo, Setaria viridis; conditions: for pest or weed control at 320 g/ha: Setaria viridis, 504 h, pre-emergence, dosage 320 g/ha, scored visually after 3 weeks vs untreated controls, read-out: SETVI (Table B8, pre-emergence herbicidal activity)
# Method in brief: as §2
# POLCO [10] = assay: Pre-emergence action against POLCO; format: in vivo, Polygonum convolvulus; conditions: for pest or weed control at 320 g/ha: Fallopia convolvulus, 504 h, Dosage 320 g/ha, pre-emergence; for Herbicidal efficacy against POLCO: 80 g of a.i./ha
# Method in brief: as §2
# CYPES [11] = assay: Post-emergence action against CYPES; format: in vivo, Cyperus esculentus; conditions: for pest or weed control at 80 g/ha: Cyperus esculentus, 504 h, post-emergence, dosage 80 g/ha, visual assessment about 3 weeks after treatment vs untreated controls, read-out: Post-emergence action against CYPES (herbicidal action in percent)
# Method in brief: as §1
# CYPES [12] = assay: Pre-emergence action against CYPES; format: in vivo, Cyperus esculentus; conditions: for pest or weed control at 320 g/ha: Cyperus esculentus, 504 h, pre-emergence, dosage 320 g/ha, scored visually after 3 weeks vs untreated controls, read-out: Pre-emergence action against CYPES (herbicidal activity); for Herbicidal efficacy against CYPES: 80 g of a.i./ha
# Method in brief: as §2
# [13] = Table V16, post-emergence, 5 g of a.i./ha
# [14] = Table V16, post-emergence, 20 g of a.i./ha
# [15] = Table V3, pre-emergence, 80 g of a.i./ha
# [16] = Table V18, post-emergence, 20 g of a.i./ha
# [17] = Table V9, pre-emergence, 80 g of a.i./ha
# [18] = Table V15, post-emergence, 5 g of a.i./ha
# [19] = Table V2, pre-emergence, 20 g of a.i./ha
Compound,pest or weed control at 80 g/ha (SETVI [1]) [%],pest or weed control at 80 g/ha (PHBPU) [%],pest or weed control at 80 g/ha (MATIN) [%],pest or weed control at 320 g/ha (ECHCG [2]) [%],pest or weed control at 80 g/ha (POLCO [3]) [%],pest or weed control at 80 g/ha (STEME) [%],pest or weed control at 80 g/ha (ECHCG [4]) [%],pest or weed control at 320 g/ha (VIOTR) [%],pest or weed control at 320 g/ha (AVEFA [5]) [%],pest or weed control at 80 g/ha (AVEFA [6]) [%],pest or weed control at 80 g/ha (VERPE [7]) [%],pest or weed control at 80 g/ha (ALOMY) [%],pest or weed control at 80 g/ha (AMARE) [%],pest or weed control at 320 g/ha (VERPE [8]) [%],pest or weed control at 80 g/ha (ABUTH) [%],pest or weed control at 320 g/ha (SETVI [9]) [%],pest or weed control at 320 g/ha (POLCO [10]) [%],pest or weed control at 80 g/ha (CYPES [11]) [%],pest or weed control at 320 g/ha (CYPES [12]) [%],further results
CCCC(=O)c1c(C(F)(F)F)ccc(C(=O)Nc2nnnn2C)c1C [1-16],90,100,100,100,100,100,90,100,90,90,90,90,100,100,100,100,80,,,
CCC(=O)c1c(C(F)F)ccc(C(=O)Nc2nnnn2C)c1Cl [1-165],100,90,90,100,100,100,90,100,100,90,90,90,90,100,90,100,90,,,
Cn1nnnc1NC(=O)c1ccc(C(F)(F)F)c(C(=O)C2CC2)c1C1CC1 [1-233],90,100,90,100,90,90,100,100,100,90,100,90,90,100,100,100,80,,,
CC(=O)c1c(S(C)(=O)=O)ccc(C(=O)Nc2nnnn2C)c1Cl [1-127],80,100,100,100,,90,100,100,90,80,100,,100,100,90,90,90,80,90,"Herbicidal efficacy against PHBPU (PHBPU; [13]): 70; Herbicidal efficacy against PHBPU (PHBPU; [14]): 100; Herbicidal efficacy against MATIN (MATIN; Table V14, post-emergence, 5 g of a.i./ha): 90; Herbicidal efficacy against MATIN (MATIN; [13]): 90; Herbicidal efficacy against MATIN (MATIN; [14]): 100; Herbicidal efficacy against ECHCG (ECHCG [2]): 100; Herbicidal efficacy against ECHCG (ECHCG [4]; 5 g of a.i./ha): 100; Herbicidal efficacy against ECHCG (ECHCG [4]; 20 g of a.i./ha): 100; Herbicidal efficacy against VIOTR (VIOTR; Table V1, pre-emergence, 80 g of a.i./ha): 100; Herbicidal efficacy against VIOTR (VIOTR; [15]): 100; Herbicidal efficacy against CYPES (CYPES [12]; Table V1, pre-emergence): 90; Herbicidal efficacy against CYPES (CYPES [12]; Table V3, pre-emergence): 90; Herbicidal efficacy against AMARE (AMARE; Table V14, post-emergence): 100; Herbicidal efficacy against VERPE (VERPE [8]; Table V4, pre-emergence, 20 g of a.i./ha): 90; Herbicidal efficacy against POLCO (POLCO [10]; Table V1, pre-emergence): 70"
Cc1c(C(=O)Nc2nnnn2C)ccc(S(C)(=O)=O)c1C(=O)C1CC1 [1-9],100,100,100,100,,100,90,100,80,100,100,100,90,,90,100,,80,80,"Herbicidal efficacy against CYPES (CYPES [11]; [16]): 70; Herbicidal efficacy against SETVI (SETVI [1]; [16]): 100; Herbicidal efficacy against PHBPU (PHBPU; [16]): 100; Herbicidal efficacy against MATIN (MATIN; Table V17, post-emergence, 5 g of a.i./ha): 100; Herbicidal efficacy against MATIN (MATIN; [16]): 100; Herbicidal efficacy against STEME (STEME; [16]): 100; Herbicidal efficacy against VIOTR (VIOTR; Table V7, pre-emergence, 20 g of a.i./ha): 70; Herbicidal efficacy against VIOTR (VIOTR; [17]): 100; Herbicidal efficacy against CYPES (CYPES [12]; Table V6, pre-emergence): 70; Herbicidal efficacy against AVEFA (AVEFA [6]; [16]): 80; Herbicidal efficacy against ALOMY (ALOMY; [16]): 80; Herbicidal efficacy against SETVI (SETVI [9]; [17]): 100; Herbicidal efficacy against POLCO (POLCO [10]; Table V6, pre-emergence): 40"
CSc1c(C(=O)Nc2nnnn2C)ccc(C(F)(F)F)c1C(C)=O [1-58],100,100,100,100,,100,100,100,100,100,100,90,100,100,100,100,100,90,100,
Cn1nnnc1NC(=O)c1ccc(S(C)(=O)=O)c(C(=O)C2CC2)c1Cl [1-129],100,100,90,100,,100,90,100,100,100,100,100,100,100,90,100,80,80,100,"Herbicidal efficacy against CYPES (CYPES [11]; [18]): 60; Herbicidal efficacy against SETVI (SETVI [1]; [18]): 100; Herbicidal efficacy against MATIN (MATIN; [18]): 80; ECHCG (ECHCG [2]; [19]): 90; Herbicidal efficacy against ECHCG (ECHCG [2]): 100; Herbicidal efficacy against VIOTR (VIOTR; [15]): 100; Herbicidal efficacy against CYPES (CYPES [12]; Table V3, pre-emergence): 100; Herbicidal efficacy against AVEFA (AVEFA [6]; [18]): 60; Herbicidal efficacy against ALOMY (ALOMY; [18]): 70; Herbicidal efficacy against AMARE (AMARE; Table V15, post-emergence): 100; VERPE (VERPE [8]; [19]): 100; SETVI (SETVI [9]; [19]): 90"
